# Data from patent US8076352B2, “Administration of carboline derivatives useful in the treatment of cancer and other diseases” (PTC Therapeutics, Inc., priority 2004, dated 2011).
# Test system: hypoxia-inducible endogenous VEGF expression in HeLa cells
# Test: Hypoxia-inducible endogenous VEGF expression, VEGF ELISA of conditioned media (dose-response EC50)
# Type: cell-based
# Details: HeLa cells under hypoxic conditions
# Protocol: The ability of the compounds of the invention to modulate hypoxia-inducible endogenous VEGF expression may be analyzed as follows. VEGF protein levels may be monitored by an ELISA assay (R&D Systems). Briefly, HeLa cells may be cultured for 24-48 hours under hypoxic conditions (1% O2, 5% CO2, balanced with nitrogen) in the presence or absence of a compound of the invention. The conditioned media may then be assayed by ELISA, and the concentration of VEGF calculated from the standard ELISA curve of each assay.
# A dose-response analysis may be performed using the ELISA assay and conditions described above. The conditions for the dose-response ELISA are analogous to those described above. A series of, e.g., seven different concentrations may be analyzed. […] Dose-response curves may be plotted using percentage inhibition versus concentration of the compound, and EC50 and CC50 values may be generated for each compound with the maximal inhibition set as 100% and the minimal inhibition as 0%.
row,EC50,Structure (SMILES)
1,40 to 200 nM,O=[N+](O)c1ccc(C2NCCc3c2[nH]c2ccc(Br)cc32)cc1 (stereo not shown) [Compound 153]

# Same assay, conditions: Homo sapiens, HeLa cells under hypoxic conditions
row,EC50,Structure (SMILES)
1,8 to 40 nM,CC(=O)N1CCc2c([nH]c3ccc(Br)cc23)C1c1ccc(C(C)C)cc1 (stereo not shown) [Compound 102]
2,8 to 40 nM,O=C(OCCCl)N1CCc2c([nH]c3ccc(Cl)cc23)C1c1ccccc1F (stereo not shown) [Compound 103]
3,8 to 40 nM,COC(=O)N1CCc2c([nH]c3ccc(Cl)cc23)C1c1cccc(Cl)c1 (stereo not shown) [Compound 104]
4,8 to 40 nM,CC(C)OC(=O)N1CCc2c([nH]c3ccc(Cl)cc23)C1c1ccccc1F (stereo not shown) [Compound 105]
5,8 to 40 nM,CCOC(=O)N1CCc2c([nH]c3ccc(Cl)cc23)C1c1ccccc1F (stereo not shown) [Compound 106]
6,8 to 40 nM,CCOC(=O)N1CCc2c([nH]c3ccc(Cl)cc23)C1c1cccc(OC)c1 (stereo not shown) [Compound 107]
7,8 to 40 nM,COC(=O)N1CCc2c([nH]c3ccc(Cl)cc23)C1c1ccccc1F (stereo not shown) [Compound 108]
8,8 to 40 nM,CCOC(=O)N1CCc2c([nH]c3ccc(Cl)cc23)C1c1cccc(C)c1 (stereo not shown) [Compound 109]
9,8 to 40 nM,COc1ccc(C2c3[nH]c4ccc(Br)cc4c3CCN2O)cc1 (stereo not shown) [Compound 110]
10,8 to 40 nM,COC(=O)N1CCc2c([nH]c3ccc(Cl)cc23)C1c1ccc([N+](=O)[O-])cc1 (stereo not shown) [Compound 111]
11,8 to 40 nM,CC(C)c1ccc(C2NCCc3c2[nH]c2ccc(Br)cc32)cc1 (stereo not shown) [Compound 112]
12,< 8 nM,CCOC(=O)N1CCc2c([nH]c3ccc(Br)cc23)C1c1ccc(OC)cc1 (stereo not shown) [Compound 112]
13,8 to 40 nM,CCOC(=O)N1CCc2c([nH]c3ccc(Cl)cc23)C1c1ccc2c(c1)OCO2 (stereo not shown) [Compound 113]
14,8 to 40 nM,O=C(OCCCl)N1CCc2c([nH]c3ccc(Cl)cc23)C1c1ccccc1 (stereo not shown) [Compound 114]
15,8 to 40 nM,CCOC(=O)N1CCc2c([nH]c3ccc(Br)cc23)C1c1cc(F)ccc1F (stereo not shown) [Compound 115]
16,8 to 40 nM,O=C(OCCCl)N1CCc2c([nH]c3ccc(Cl)cc23)C1c1cccc(F)c1 (stereo not shown) [Compound 116]
17,8 to 40 nM,COc1cccc(C2c3[nH]c4ccc(Cl)cc4c3CCN2C(=O)OCCCl)c1 (stereo not shown) [Compound 117]
18,8 to 40 nM,COC(=O)N1CCc2c([nH]c3ccc(Cl)cc23)C1c1ccc(C#N)cc1 (stereo not shown) [Compound 118]
19,8 to 40 nM,CCOC(=O)N1CCc2c([nH]c3ccc(Cl)cc23)C1c1ccc(C#N)cc1 (stereo not shown) [Compound 120]
20,8 to 40 nM,O=C(Oc1ccccc1)N1CCc2c([nH]c3ccc(Cl)cc23)C1c1ccccc1 (stereo not shown) [Compound 121]
21,8 to 40 nM,CC(C)COC(=O)N1CCc2c([nH]c3ccc(Cl)cc23)C1c1ccccc1 (stereo not shown) [Compound 122]
22,8 to 40 nM,Fc1cccc(C2NCCc3c2[nH]c2ccc(Cl)cc32)c1F (stereo not shown) [Compound 123]
23,40 to 200 nM,Clc1ccc(C2NCCc3c2[nH]c2ccc(Cl)cc32)c(Cl)c1 (stereo not shown) [Compound 124]
24,40 to 200 nM,COC(=O)N1CCc2c([nH]c3ccc(Cl)cc23)C1c1cccc(C(F)(F)F)c1 (stereo not shown) [Compound 125]

row,EC50,Structure (SMILES)
1,40 to 200 nM,CCOC(=O)N1CCc2c([nH]c3ccc(Cl)cc23)C1c1cc(=O)c2ccccc2o1 (stereo not shown) [Compound 126]
2,40 to 200 nM,COC(=O)N1CCc2c([nH]c3ccc(Cl)cc23)C1c1cccc(OC)c1 (stereo not shown) [Compound 127]
3,40 to 200 nM,CCOC(=O)N1CCc2c([nH]c3ccc(Cl)cc23)C1c1ccc(O)cc1 (stereo not shown) [Compound 128]
4,40 to 200 nM,CC(=O)N1CCc2c([nH]c3ccc(Br)cc23)C1c1ccc(Br)cc1 (stereo not shown) [Compound 129]
5,40 to 200 nM,COc1ccc(C2c3[nH]c4ccc(Br)cc4c3CCN2C(C)=O)cc1 (stereo not shown) [Compound 130]
6,40 to 200 nM,CC(=O)N1CCc2c([nH]c3ccc(Br)cc23)C1c1ccc(C)cc1 (stereo not shown) [Compound 131]
7,40 to 200 nM,Fc1cccc(C2NCCc3c2[nH]c2ccc(Br)cc32)c1F (stereo not shown) [Compound 132]
8,40 to 200 nM,COC(=O)N1CCc2c([nH]c3ccc(Cl)cc23)C1c1ccc2c(c1)OCO2 (stereo not shown) [Compound 133]
9,40 to 200 nM,COC(=O)N1CCc2c([nH]c3ccc(Cl)cc23)C1c1ccc(F)c(F)c1 (stereo not shown) [Compound 134]
10,40 to 200 nM,Clc1ccc(C2NCCc3c2[nH]c2ccc(Br)cc32)c(Cl)c1 (stereo not shown) [Compound 135]
11,40 to 200 nM,CCOC(=O)Oc1ccc(C2c3[nH]c4ccc(Cl)cc4c3CCN2C(=O)OCC)cc1 (stereo not shown) [Compound 136]
12,40 to 200 nM,Clc1cccc(C2NCCc3c2[nH]c2ccc(Br)cc32)c1 (stereo not shown) [Compound 137]
13,40 to 200 nM,ON1CCc2c([nH]c3ccc(Br)cc23)C1c1ccccc1 (stereo not shown) [Compound 138]
14,40 to 200 nM,CCOC(=O)N1CCc2c([nH]c3ccc(Cl)cc23)C1c1cccc([N+](=O)[O-])c1 (stereo not shown) [Compound 139]
15,40 to 200 nM,O=C(NC1CCCCC1)N1CCc2c([nH]c3ccc(Br)cc23)C1c1cccc(Cl)c1 (stereo not shown) [Compound 140]
16,40 to 200 nM,CCOC(=O)N1CCc2c([nH]c3ccc(Cl)cc23)C1c1ccc(Cl)cc1Cl (stereo not shown) [Compound 141]
17,40 to 200 nM,COc1ccc(C2c3[nH]c4ccc(Cl)cc4c3CCN2C(=O)Nc2ccccc2OC)cc1 (stereo not shown) [Compound 142]
18,40 to 200 nM,CCC(=O)N1CCc2c([nH]c3ccc(Cl)cc23)C1c1ccc(OC)cc1 (stereo not shown) [Compound 143]
19,40 to 200 nM,CCCC(=O)N1CCc2c([nH]c3ccc(Cl)cc23)C1c1ccc(OC)c(OC)c1 (stereo not shown) [Compound 144]
20,40 to 200 nM,CCOC(=O)N1CCc2c([nH]c3ccc(Cl)cc23)C1C1CCCCC1 (stereo not shown) [Compound 145]
21,40 to 200 nM,CCNC(=S)N1CCc2c([nH]c3ccc(Cl)cc23)C1c1ccc(OC)cc1 (stereo not shown) [Compound 146]
22,40 to 200 nM,COc1ccc(C2c3[nH]c4ccc(Cl)cc4c3CCN2C(=O)NC2CCCCC2)cc1 (stereo not shown) [Compound 147]
23,40 to 200 nM,CCOC(=O)N1CCc2c([nH]c3ccc(Br)cc23)C1c1cccc(Cl)c1Cl (stereo not shown) [Compound 148]
24,40 to 200 nM,S=C(NC1CCCCC1)N1CCc2c([nH]c3ccc(Br)cc23)C1c1cccc(Cl)c1 (stereo not shown) [Compound 150]

row,EC50,Structure (SMILES)
1,40 to 200 nM,Clc1cccc(C2NCCc3c2[nH]c2ccc(Br)cc32)c1Cl (stereo not shown) [Compound 151]
2,40 to 200 nM,CC(=O)N1CCc2c([nH]c3ccc(Br)cc23)C1c1ccccc1 (stereo not shown) [Compound 152]
3,40 to 200 nM,COC(=O)N1CCc2c([nH]c3ccc(Cl)cc23)C1c1cc(F)ccc1F (stereo not shown) [Compound 154]
4,40 to 200 nM,Fc1cc(F)cc(C2NCCc3c2[nH]c2ccc(Br)cc32)c1 (stereo not shown) [Compound 155]
5,40 to 200 nM,Cc1ccc(C2NCCc3c2[nH]c2ccc(Br)cc32)cc1 (stereo not shown) [Compound 156]
6,40 to 200 nM,Brc1ccc(C2NCCc3c2[nH]c2ccc(Br)cc32)cc1 (stereo not shown) [Compound 157]
7,40 to 200 nM,CC(C)NC(=S)N1CCc2c([nH]c3ccc(Br)cc23)C1c1ccccc1 (stereo not shown) [Compound 158]
8,40 to 200 nM,FC(F)(F)c1ccc(C2NCCc3c2[nH]c2ccc(Cl)cc32)cc1 (stereo not shown) [Compound 159]
9,40 to 200 nM,COc1ccc(C2c3[nH]c4ccc(Cl)cc4c3CCN2C(=O)Nc2cccc(F)c2)cc1 (stereo not shown) [Compound 160]
10,40 to 200 nM,Fc1ccc(C2NCCc3c2[nH]c2ccc(Br)cc32)c(F)c1 (stereo not shown) [Compound 161]
11,40 to 200 nM,CC(C)c1ccc(C2NCCc3c2[nH]c2ccc(Cl)cc32)cc1 (stereo not shown) [Compound 162]
12,40 to 200 nM,Fc1ccc(C2NCCc3c2[nH]c2ccc(Cl)cc32)c(F)c1 (stereo not shown) [Compound 163]
13,40 to 200 nM,COc1ccc(C2c3[nH]c4ccc(Cl)cc4c3CCN2C(=O)Nc2cccc(OC)c2)cc1 (stereo not shown) [Compound 164]
14,40 to 200 nM,CCOC(=O)N1CCc2c([nH]c3ccc(Cl)cc23)C1c1cccc(O)c1 (stereo not shown) [Compound 165]
15,40 to 200 nM,C[C@H](NC(=O)OC(C)(C)C)C(=O)N1CCc2c([nH]c3ccc(Cl)cc23)C1c1ccccc1 (stereo partly shown) [Compound 166]
16,40 to 200 nM,COc1ccc(C2c3[nH]c4ccc(Cl)cc4c3CCN2C(=O)Nc2ccccc2)cc1 (stereo not shown) [Compound 167]
17,40 to 200 nM,Clc1ccc2[nH]c3c(c2c1)CCNC3c1cccc(Cl)c1Cl (stereo not shown) [Compound 168]
18,40 to 200 nM,CCOC(=O)N1CCc2c([nH]c3ccc(Cl)cc23)C1c1ccccc1OC (stereo not shown) [Compound 169]
19,40 to 200 nM,Clc1ccc2[nH]c3c(c2c1)CCNC3c1ccc(Cl)c(Cl)c1 (stereo not shown) [Compound 170]
20,200 to 1000 nM,Clc1ccc2[nH]c3c(c2c1)CCNC3c1ccc(Br)cc1 (stereo not shown) [Compound 171]
21,200 to 1000 nM,CCNC(=O)N1CCc2c([nH]c3ccc(Cl)cc23)C1c1ccc(OC)cc1 (stereo not shown) [Compound 172]
22,200 to 1000 nM,Fc1cc(F)cc(C2NCCc3c2[nH]c2ccc(Cl)cc32)c1 (stereo not shown) [Compound 173]
23,200 to 1000 nM,Brc1ccc2[nH]c3c(c2c1)CCNC3c1ccccc1 (stereo not shown) [Compound 174]
24,200 to 1000 nM,CCOC(=O)Oc1cccc(C2c3[nH]c4ccc(Cl)cc4c3CCN2C(=O)OCC)c1 (stereo not shown) [Compound 175]
